The target of data set [1] is T1, EphA4 (Mus musculus, UniProt Q03137).
T1 construct: mouse EphA4 ectodomain fused to Fc; purchased R&D Systems
Put plainly: ELISA, inhibition of ephrin-A5 AP binding to immobilized EphA4 Fc. Particulars: C-terminally amidated peptides. A general note: In an ELISA, binding on a coated surface is turned into a signal by an enzyme label.

Data set [2] in a line: Stability of antagonistic activity in plasma.
Description: (§1) Aliquots were collected at different time points and used in ELISA measuring inhibition of EphA4 AP-ephrin-A5 Fc binding. For ELISA, ephrin-A5 Fc was immobilized at 1 μg/mL for 1 hour at room temperature in protein A-coated 96-well plates as described above. […] The amount of bound AP fusion protein was quantified by measuring the absorbance at 280 nm. The optical density obtained from wells coated with Fc and incubated with EphA4 AP and plasma or serum was subtracted as the background.
The conditions of data set [3]: mouse, plasma, Half-life (t1/2) Plasma.
Description: as §1
The target in data set [4] is EphA4 (Homo sapiens, UniProt P54764). Particulars: background statement; cited from earlier work.
A short description of data set [5]: Stability of antagonistic activity in cerebrospinal fluid (CSF). Particulars: rat, depending on the conditions, units inside the value.
Description: as §1
The nature of data set [6]: in vitro. Particulars: mouse, plasma, Half-life (t1/2) Plasma.
Description: as §1
Data set [7] is described as follows: in vitro. The conditions noted are these: rat, Half-life (t1/2) CSF.
Description: as §1
Data set [8] relates to other Eph receptors (EphA2, EphA3, EphA5, EphA6, EphA7, EphA8, EphB1, EphB2, EphB3, EphB4, EphB6). As to the kind of experiment: Eph receptor selectivity ELISA (ephrin-A5 AP / ephrin-B2 AP binding to Eph receptor Fc). Particulars: concentration about 100-fold higher than the IC50 value for EphA4.
The subject of data set [9] is HT22 mouse hippocampal neurons. Put plainly: MTT cytotoxicity assay. In kind it is cell-based. Particulars: HT22 cells, 24 hours, 30 μM. The method, then: HT22 mouse hippocampal neurons were grown in DMEM supplemented with 10% FBS, 1 mM sodium pyruvate and antibiotics. […] The cells were then incubated for 2 hours in 5 mg/mL MTT (Sigma-Aldrich) in PBS at 37° C. in a CO2 incubator. The resulting formazan crystals were solubilized by addition of 100% DMSO and OD570 was measured.
Background: Tetrazolium assays rely on reduction of a dye to a coloured formazan, in cell work by metabolically active cells.

“Also recorded” adds a separate entry of the source. Ends that are not written are not given here.

T1 sequence (Q03137 20-547 limits assumed): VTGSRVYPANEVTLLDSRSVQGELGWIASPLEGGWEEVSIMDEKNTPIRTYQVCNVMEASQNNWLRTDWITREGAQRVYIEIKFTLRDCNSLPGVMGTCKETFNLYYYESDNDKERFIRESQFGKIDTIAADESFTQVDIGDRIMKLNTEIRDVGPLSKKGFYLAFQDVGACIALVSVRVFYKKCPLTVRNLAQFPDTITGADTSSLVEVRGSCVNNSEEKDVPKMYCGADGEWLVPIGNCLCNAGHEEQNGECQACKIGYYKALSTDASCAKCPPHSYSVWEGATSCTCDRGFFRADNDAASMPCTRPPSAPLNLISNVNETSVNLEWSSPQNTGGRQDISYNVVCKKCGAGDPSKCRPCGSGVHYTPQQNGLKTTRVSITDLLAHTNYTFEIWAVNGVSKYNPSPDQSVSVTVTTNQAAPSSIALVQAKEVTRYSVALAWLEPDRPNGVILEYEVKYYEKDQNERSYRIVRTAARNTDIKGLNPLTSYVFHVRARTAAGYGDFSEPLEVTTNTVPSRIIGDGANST
EphA4 (Homo sapiens, UniProt P54764), sequence (P54764 20-986, species assumed): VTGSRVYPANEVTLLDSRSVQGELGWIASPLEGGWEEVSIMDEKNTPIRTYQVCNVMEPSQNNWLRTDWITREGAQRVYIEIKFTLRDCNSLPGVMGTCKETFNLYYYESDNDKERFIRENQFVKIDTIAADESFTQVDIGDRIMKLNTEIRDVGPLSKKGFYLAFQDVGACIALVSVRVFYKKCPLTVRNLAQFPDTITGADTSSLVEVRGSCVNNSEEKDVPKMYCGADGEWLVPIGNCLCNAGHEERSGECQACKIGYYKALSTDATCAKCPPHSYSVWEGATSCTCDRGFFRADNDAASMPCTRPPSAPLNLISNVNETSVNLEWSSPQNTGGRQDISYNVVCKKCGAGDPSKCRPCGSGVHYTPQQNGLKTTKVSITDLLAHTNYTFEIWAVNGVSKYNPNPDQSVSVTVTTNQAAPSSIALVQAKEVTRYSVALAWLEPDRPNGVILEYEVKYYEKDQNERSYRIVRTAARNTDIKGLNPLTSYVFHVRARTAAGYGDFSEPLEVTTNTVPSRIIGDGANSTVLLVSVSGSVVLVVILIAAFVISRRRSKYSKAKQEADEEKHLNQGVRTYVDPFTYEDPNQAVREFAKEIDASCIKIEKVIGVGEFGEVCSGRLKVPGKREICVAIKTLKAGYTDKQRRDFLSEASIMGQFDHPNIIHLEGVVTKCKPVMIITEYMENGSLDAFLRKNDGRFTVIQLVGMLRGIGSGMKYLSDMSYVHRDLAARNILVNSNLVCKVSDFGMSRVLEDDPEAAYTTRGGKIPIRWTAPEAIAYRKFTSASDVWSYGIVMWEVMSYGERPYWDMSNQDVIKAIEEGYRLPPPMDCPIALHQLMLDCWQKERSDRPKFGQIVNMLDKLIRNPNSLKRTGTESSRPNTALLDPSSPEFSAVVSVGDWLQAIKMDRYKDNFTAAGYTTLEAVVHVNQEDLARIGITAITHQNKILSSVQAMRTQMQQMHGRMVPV

For the compound `CC(C)[C@@H]1NC(=O)[C@@H](NC(=O)[C@H](Cc2ccc(O)cc2)NC(=O)[C@@H]2CCCN2C(=O)[C@H](C)N)CSSC[C@@H](C(N)=O)NC(=O)[C@H](CO)NC(=O)[C@H](Cc2c[nH]c3ccccc23)NC(=O)[C@H](CO)NC(=O)[C@H](C)NC(=O)[C@H](CCCNC(=N)N)NC(=O)[C@H](Cc2ccc(O)cc2)NC1=O` [APY-Ala8.am], at EphA4 [1] (relative to APY.am), the “loss in potency on replacement of Gly8” value is listed as “about 30 fold”.

By half-life is commonly meant the time in which the quantity being followed falls by half. Higher therefore signals slow decline. For the compound `CC(C)[C@@H]1NC(=O)[C@@H](NC(=O)[C@H](Cc2ccc(O)cc2)NC(=O)[C@@H]2CCCN2C(=O)[C@H](C)N)CSSC[C@@H](C(=O)O)NC(=O)[C@H](CO)NC(=O)[C@H](Cc2c[nH]c3ccccc23)NC(=O)[C@H](CO)NC(=O)CNC(=O)[C@H](CCCNC(=N)N)NC(=O)[C@H](Cc2ccc(O)cc2)NC1=O` [APY, reference compound], the half-life at 200 μM in [2] (mouse, plasma, Half-life (t1/2) Plasma, mouse plasma, 37° C., loss of antagonistic activity) was 0.267 h.

As usually defined, the Kd is the free concentration of one partner at which half of the binding sites on the other are occupied at equilibrium, for simple one-to-one binding. With KYLPYWPVLSSL [KYL], in data set [3], the half-life was found to be 0.183 h. Further, the Kd on EphA4 [4] is 800 to 1000 nM.

For the compound `CC(C)[C@@H]1NC(=O)[C@@H](NC(=O)[C@H](Cc2ccc(O)cc2)NC(=O)[C@@H]2CCCN2C(=O)[C@H](C)N)CSSC[C@@H](C(N)=O)NC(=O)[C@H](CO)NC(=O)[C@H](Cc2c[nH]c3ccccc23)NC(=O)[C@H](CO)NC(=O)[C@@H](C)NC(=O)[C@H](CCCNC(=N)N)NC(=O)[C@H](Cc2ccc(O)cc2)NC1=O` [APY-DAla8.am], the “effect of Gly8 replacement on potency” value at EphA4 [1] is recorded as “did not substantially affect potency”.

For the compound `CC(C)[C@@H]1NC(=O)[C@@H](NC(=O)[C@H](Cc2ccc(O)cc2)NC(=O)[C@@H]2CCCN2C(=O)[C@H](C)N)CSSC[C@@H](C(N)=O)NC(=O)[C@H](CO)NC(=O)[C@H](Cc2c[nH]c3ccccc23)NC(=O)[C@H](CO)NC(=O)CCNC(=O)[C@H](CCCNC(=N)N)NC(=O)[C@H](Cc2ccc(O)cc2)NC1=O` [APY-βAla8.am, APYCVYRβASWSC-am], the half-life at 200 μM in [5] was 0.5 to 3 h; in “in vitro [6]”, approximately 2 h; in “in vitro [7]”, 0.5 to 3 h. In addition, the “inhibition of other Eph receptors” value in data set [8] is “does not inhibit other Eph receptors”. For the same compound, the increase in stability in data set [2] (relative to KYL and APY) is listed as 2-8 fold. In data set [9], the “cytotoxicity (MTT)” value is recorded as “did not reveal significant cytotoxicity; also recorded: does not have detectable cytotoxic effects”.

With `CC(C)[C@@H]1NC(=O)[C@@H](NC(=O)[C@H](Cc2ccc(O)cc2)NC(=O)[C@@H]2CCCN2C(=O)[C@@H](C)N)CSSC[C@@H](C(N)=O)NC(=O)[C@H](CO)NC(=O)[C@H](Cc2c[nH]c3ccccc23)NC(=O)[C@H](CO)NC(=O)CCNC(=O)[C@H](CCCNC(=N)N)NC(=O)[C@H](Cc2ccc(O)cc2)NC1=O` [DAla1-PY-βAla8.am, D-APYCVYRβASWSC-am], the half-life at 200 μM in “in vitro [6]” and in the data set “in vitro [7]” was approximately 72 h each time.

These data come from patent US10322161B2, “EPHA4 cyclic peptide antagonists for neuroprotection and neural repair” (Sanford Burnham Prebys Medical Discovery Institute, priority 2014, dated 2019).
